Assay results from PubChem BioAssay (NCI).
Values joined by “and” are separate entries in the source; they are usually repeats but may differ in a detail not shown here. Identical values can stand only once.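 Step 1: Grow cells in 96-well plates. Step 2: Expose to compound for 48 hours at 5 concentrations. Step 3: Interpolate endpoints linearly; if unreached, use highest concentration. Here, GI50 denotes the concentration required for 50% inhibition of growth. TGI: total growth inhibition.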

Tests used:
Assay in all cases: NCI-60 cell line screen, 48 h
CAKI-1 renal = tested on: CAKI-1 renal
A549 NSCLC = tested on: A549 NSCLC
CCRF-CEM leukemia = tested on: CCRF-CEM leukemia
UACC-257 melanoma = tested on: UACC-257 melanoma
MALME-3M melanoma = tested on: MALME-3M melanoma
NCI/ADR-RES ovarian = tested on: NCI/ADR-RES ovarian
OVCAR-3 ovarian = tested on: OVCAR-3 ovarian
SR leukemia = tested on: SR leukemia
SF-539 CNS = tested on: SF-539 CNS
NCI-H23 lung = tested on: NCI-H23 lung

Structure (SMILES)	GI50 (CAKI-1 renal) [µM]	TGI (CAKI-1 renal) [µM]	GI50 (A549 NSCLC)	TGI (A549 NSCLC)	GI50 (CCRF-CEM leukemia) [µM]	TGI (CCRF-CEM leukemia) [µM]	GI50 (UACC-257 melanoma)	TGI (UACC-257 melanoma)	GI50 (MALME-3M melanoma)	TGI (MALME-3M melanoma)	TGI (NCI/ADR-RES ovarian) [µM]	GI50 (OVCAR-3 ovarian)	TGI (OVCAR-3 ovarian)	GI50 (SR leukemia)	TGI (SR leukemia) [µM]	GI50 (SF-539 CNS) [µM]	TGI (SF-539 CNS)	GI50 (NCI-H23 lung)	TGI (NCI-H23 lung)	GI50 (NCI/ADR-RES ovarian) [µM]
COCCn1c2c([n+](Cc3cnccn3)c1C)C(=O)c1ccccc1C2=O	2.72	> 100	0.0166 µM	0.0434 µM	0.0207	0.345	< 0.01 µM	< 0.01 µM	0.126 µM	0.316 µM	> 100	< 0.01 µM	< 0.01 µM	< 0.0108 µM	6.85	< 0.01	0.0337 µM	< 0.01 µM	< 0.0113 µM	–
O=C(N/N=C/c1ccncc1)c1ccc(F)cc1	> 40	> 40	> 40 µM	> 40 µM	> 40	> 40	> 40 µM	> 40 µM	> 40 µM	> 40 µM	> 40	> 40 µM	> 40 µM	> 40 µM	> 40	> 40	> 40 µM	> 40 µM	> 40 µM	> 40
C=CC(=O)N1CCC[C@@H](n2nc(-c3ccc(Oc4ccccc4)cc3)c3c(N)ncnc32)C1	> 6.12	> 10	> 10 µM	> 10 µM	> 10	> 10	> 10 µM	> 10 µM	> 10 µM	> 10 µM	> 10	> 6.8 µM	> 10 µM	> 10 µM	> 10	> 6.36	> 10 µM	> 10 µM	> 10 µM	> 6.08
COc1c(B(O)O)cccc1-c1nc2c(F)cc3n[nH]c(C)c3c2c2c1CCCC2	0.0106	0.213	1.13 µM	> 50 µM	0.373	> 50	2.08 µM	> 40.8 µM	2.5 µM	7.73 µM	> 50	1.48 µM	> 50 µM	0.964 µM	> 24.3	0.212	2.97 µM	1.33 µM	> 27.8 µM	1.48
CC[C@@H](C)/C=C(C)/C=C/C(=O)c1c(O)c(-c2ccc(O)cc2)cn(OC2CC(=O)CCC(C)OC(=O)CC2O)c1=O (stereo partly drawn)	0.361	3	1.74 µM	15.6 µM	0.163	12.6	0.368 µM	8.87 µM	0.305 µM	6.8 µM	3.03	0.284 µM	14.1 µM	0.21 µM	1.27	0.366	3.84 µM	0.406 µM	9.29 µM	0.286
O=C(O)c1ccc(/C=N/N=C2c3ccccc3-c3ccccc32)cc1	–	93.3	–	> 100 µM	–	> 100	–	> 100 µM	–	> 100 µM	> 100	–	67.4 µM	–	> 100	–	92.3 µM	–	> 100 µM	–
C[C@]12CC[C@@H]3c4ccc(OC(=O)N(CCCl)CCCl)cc4CC[C@H]3[C@@H]1CC[C@@H]2OP(=O)(O)O	> 77.1	> 100	48.8 µM	> 100 µM	25.7	> 78.7	44.5 µM	> 80.6 µM	83.5 µM	> 100 µM	> 100	46.7 µM	> 95.2 µM	9.82 µM	33.3	22.3	> 58.1 µM	38.4 µM	> 100 µM	49.5
O=C1OCC2=C1C(c1cccc(Cl)c1)c1cc3c(cc1N2CCO)CCC3 (stereo not drawn)	0.0493	14.7	0.0477 µM	6.45 µM	0.0416	14.1	0.0354 µM	15.6 µM	0.0494 µM	22.7 µM	0.108	0.0253 µM	0.0666 µM	0.0609 µM	21	0.0361	7.53 µM	0.0481 µM	14.3 µM	0.0289
CC/C(=C(/c1ccc(OCCN(C)C)cc1)c1ccc(OC(=O)CCCCCCCCC(=O)c2c(C)[nH]c(/C=C3\N=C(c4ccc[nH]4)C=C3OC)c2C)cc1)c1ccccc1	7	> 100	4.13 µM	> 100 µM	0.768	> 100	62.5 µM	> 100 µM	40.7 µM	> 100 µM	> 100	10.9 µM	> 100 µM	4.1 µM	> 100	10.7	61.6 µM	48.4 µM	> 100 µM	31.7
CCC(C)C1NC(=O)C(NC(=O)C(CC(C)C)N(C)C(=O)[C@@H]2CC(O)CN2C(=O)[C@H](C)O)C(C)OC(=O)[C@H](Cc2ccc(OC)cc2)N(C)C(=O)[C@@H]2CCCN2C(=O)[C@H](CC(C)C)NC(=O)C(C)C(=O)[C@H](C(C)C)OC(=O)CC1O (stereo partly drawn)	0.229	2.99	0.0277 µM	1.91 µM	0.0276	0.28	0.0768 µM	1.94 µM and 1.85 µM	0.013 µM	1.07 µM and 0.185 µM	> 100	0.0793 µM	1.26 µM and 0.982 µM	0.0189 µM	> 100	0.0104	0.211 µM and 0.335 µM	–	0.172 µM	–
O=C(Nc1cccc(-n2cc(-c3ccncc3)c(-c3ccc(Cl)c(O)c3)n2)c1)Nc1ccc(Cl)c(Cl)c1	1.11	14.3	1.01 µM	> 32.5 µM	1.03	> 32.5	0.93 µM	3.16 µM	1.19 µM	8.1 µM	> 32.5	1.05 µM	3.15 µM	1.14 µM	15	1.34	8.97 µM	1.22 µM	29.1 µM	2.74
CC[C@@]1(O)C(=O)OCc2c1cc1n(c2=O)Cc2c-1nc1cc(F)c(C)c3c1c2[C@@H](NC(=O)CO)CC3	< 0.01	0.117	0.0503 µM	7.51 µM	< 0.01	> 100	0.047 µM	1.02 µM	0.0304 µM	1.08 µM	3.98	0.0603 µM	1.65 µM	< 0.01 µM	> 100	< 0.01	0.0404 µM	< 0.01 µM	0.0729 µM	0.0564
c1ccc(CC(Nc2cccnc2)c2ccccc2)cc1 (stereo not drawn)	–	> 100	–	> 100 µM	–	46.2	–	49.8 µM	–	72.4 µM	68.2	–	34.3 µM	–	50.9	–	40.5 µM	–	82.2 µM	–
Cc1cnc(-c2ccc(-c3ccc(NC(=O)Nc4c(F)cc(F)cc4F)cc3F)c3c2C(=O)NC3)[nH]1	1.74	27.5	1.29 µM and 1.11 µM	8.23 µM and 10.8 µM	–	> 100	0.333 µM and 0.97 µM	10.2 µM and 14.5 µM	0.124 µM and 0.106 µM	2.37 µM and 2.8 µM	> 100	1.38 µM and 1.51 µM	2.82 µM and 3.02 µM	0.0294 µM and < 0.01 µM	–	0.709	18.9 µM	0.286 µM and 0.545 µM	5.5 µM and 6.52 µM	> 100
COc1cc(C2CC(c3cccc(Nc4ccnc5cc(Cl)ccc45)c3)=NN2c2ccccc2)cc(OC)c1OC (stereo not drawn)	2.52	> 100	8.87 µM	> 100 µM	6.4	> 100	10.5 µM	> 100 µM	> 100 µM	> 100 µM	> 100	8.64 µM	> 100 µM	5.49 µM	> 100	3.08	18.1 µM	64.4 µM	> 100 µM	5.97
COC(=O)c1c2c(c(C)[n+]([O-])c1C)C(=O)C(NCc1ccc(O)cc1)=CC2=O	1.69	4.26	1.93 µM	4.6 µM	1.6	4.35	0.556 µM	1.97 µM	0.256 µM	0.93 µM	6.37	0.266 µM	0.82 µM	1.83 µM	6.51	1.68	3.07 µM	1.43 µM	3.5 µM	2.2
Nc1n[nH]c2ccc([C@@H]3Nc4ccc5cn[nH]c5c4[C@H]4C5CCC(C5)[C@@H]34)cc12 (stereo partly drawn)	0.347	> 48.8	0.541 µM	> 100 µM	0.343	> 100	12.5 µM	> 100 µM	0.522 µM	> 100 µM	> 24.1	0.346 µM	10.9 µM	0.361 µM	> 100	0.299	3.38 µM	0.453 µM	38.5 µM	0.887
CC(=O)ON=C1C=CC(=C(C#N)c2ccccc2)C=C1	0.396	2.71	3.09 µM	> 36 µM	0.387	> 100	2.32 µM	18.3 µM	4.01 µM	20.1 µM	4.21	1.03 µM	8.41 µM	0.619 µM	16.5	0.671	11.2 µM	4.71 µM	> 47.4 µM	0.768
Cc1cc(C)c2c(c1)N(C)c1ncnc(-n3cnc4cc(C)ccc43)c1CC2C (stereo not drawn)	3.37	70.2	4.03 µM	56.9 µM	2.78	11.4	11.5 µM	38.5 µM	3.61 µM	17.3 µM	19.5	3.32 µM	14.7 µM	0.787 µM	8.62	2.74	9.16 µM	4.87 µM	> 100 µM	3.05
CO/C(=C1/NC(=O)C(Cc2ccc(O)c(Br)c2)N(C)C(=O)C(C)NC(=O)CCC/C=C(\C)CCC(C)OC1=O)c1ccccc1 (stereo not drawn)	0.0196	0.0509	< 0.0141 µM	0.471 µM	0.0185	0.0805	0.029 µM	0.15 µM	0.0319 µM	0.123 µM	18.1	< 0.0164 µM	0.0376 µM	–	> 100	0.0281	0.783 µM	0.106 µM	22.4 µM	0.0566
Cn1c(=O)c(Oc2ccc(F)cc2F)cc2cnc(NCC(C)(C)O)nc21	> 25	> 25	> 25 µM	> 25 µM	> 25	> 25	> 25 µM	> 25 µM	> 25 µM	> 25 µM	> 25	> 25 µM	> 25 µM	> 25 µM	> 25	> 25	> 25 µM	> 25 µM	> 25 µM	> 25
COc1cc2c(cc1OCCCN1CCN(C(=S)SCCC(C#N)(c3ccccc3)c3ccccc3)CC1)N=C[C@@H]1CCCN1C2=O	0.357	1.48	1.25 µM	7.36 µM	0.235	0.537	1.99 µM	3.9 µM	0.938 µM	2.19 µM	> 51.5	0.488 µM	1.26 µM	0.431 µM	–	1.45	3.37 µM	1.07 µM	2.7 µM	3.69
